This is an account of results in ChEMBL document CHEMBL4251578, “Design, synthesis and biological evaluation of novel 2-aminobenzamides containing dithiocarbamate moiety as histone deacetylase inhibitors and potent antitumor agents” (Eur J Med Chem, 2018).

Assay [1] deals with SMMC-7721. The assay is described as follows: Cell cycle arrest in human SMMC7721 cells assessed as accumulation of cells at G0/G1 phase at 4 umol/L after 72 hrs by propidium iodide staining-based flow cytometric analysis (reference value: 80.65%). It counts as functional. For orientation: A flow cytometer gives signals particle by particle.
Assay [2] concerns SMMC-7721. The assay is described as follows: Antiproliferative activity against human SMMC7721 cells after 72 hrs by CCK-8 assay. It counts as functional, cell-based. The following applies: for IC50: SMMC-7721, 72 h. In general terms: Tetrazolium dyes change colour on reduction, which living cells bring about.
Assay [3] has as its system SMMC-7721. The assay is described as follows: Cell cycle arrest in human SMMC7721 cells assessed as accumulation of cells at G2/M phase at 4 umol/L after 72 hrs by propidium iodide staining-based flow cytometric analysis (reference value: 14.14%). It counts as functional.
A further assay has as its target Histone deacetylase 2 (Homo sapiens, UniProt Q92769). The assay is described as follows: Inhibition of human recombinant HDAC2 using Fluor de Lys-Green as substrate preincubated for 5 mins followed by substrate addition and measured after 1 hr by fluorescence assay.
The test system of assay [4] is SMMC-7721. The assay is described as follows: Induction of apoptosis in human SMMC7721 cells assessed as early apoptotic cells at 4 umol/L after 72 hrs by Alexa Fluor 488 Annexin/propidium iodide staining-based flow cytometric analysis (reference value: 0.09%). Type of assay: functional.
For assay [5], the system named is SMMC-7721. The assay is described as follows: Induction of apoptosis in human SMMC7721 cells assessed as late apoptotic cells at 1 umol/L after 72 hrs by Alexa Fluor 488 Annexin/propidium iodide staining-based flow cytometric analysis (reference value: 0.29%). It counts as functional.
For assay [6], the system named is SMMC-7721. The assay is described as follows: Cell cycle arrest in human SMMC7721 cells assessed as accumulation of cells at G2/M phase at 1 umol/L after 72 hrs by propidium iodide staining-based flow cytometric analysis (reference value: 14.14%). It counts as functional.
A further assay relates to NCI-H1299. The assay is described as follows: Antiproliferative activity against human NCI-H1299 cells after 72 hrs by CCK-8 assay. The following applies: for IC50: NCI-H1299, 72 h. It counts as functional, cell-based.
Assay [7] concerns SMMC-7721. The assay is described as follows: Cell cycle arrest in human SMMC7721 cells assessed as accumulation of cells at S phase at 0.125 umol/L after 72 hrs by propidium iodide staining-based flow cytometric analysis (reference value: 5.21%). It counts as functional.
A further assay addresses Histone deacetylase. The assay is described as follows: Inhibition of HDAC in human HeLa cell extract using Fluor de Lys-Green as substrate preincubated for 5 mins followed by substrate addition and measured after 1 hr by fluorescence assay. Type of assay: protein assay.
The subject of assay [8] is SMMC-7721. The assay is described as follows: Induction of apoptosis in human SMMC7721 cells assessed as viable cells at 1 umol/L after 72 hrs by Alexa Fluor 488 Annexin/propidium iodide staining-based flow cytometric analysis (reference value: 97.14%). It counts as functional. The following applies: SMMC-7721, 72 h, read-out: Activity.
The test system of another assay is HeLa. The assay is described as follows: Antiproliferative activity against human HeLa cells at 8 uM after 72 hrs by CCK-8 assay relative to control. It counts as functional.
Assay [9] concerns SMMC-7721. The assay is described as follows: Induction of apoptosis in human SMMC7721 cells assessed as early apoptotic cells at 1 umol/L after 72 hrs by Alexa Fluor 488 Annexin/propidium iodide staining-based flow cytometric analysis (reference value: 0.09%). Type of assay: functional.
In assay [10] the test system is SMMC-7721. The assay is described as follows: Induction of apoptosis in human SMMC7721 cells assessed as viable cells at 4 umol/L after 72 hrs by Alexa Fluor 488 Annexin/propidium iodide staining-based flow cytometric analysis (reference value: 97.14%). Type of assay: functional. The following applies: SMMC-7721, 72 h, read-out: Activity.
Assay [11] has as its system SMMC-7721. The assay is described as follows: Induction of apoptosis in human SMMC7721 cells assessed as late apoptotic cells at 4 umol/L after 72 hrs by Alexa Fluor 488 Annexin/propidium iodide staining-based flow cytometric analysis (reference value: 0.29%). Type of assay: functional.
For the next assay, the system named is A-375. The assay is described as follows: Antiproliferative activity against human A375 cells at 8 uM after 72 hrs by CCK-8 assay relative to control. It counts as functional. The following applies: A-375, 72 h.
Assay [12] deals with SMMC-7721. The assay is described as follows: Cell cycle arrest in human SMMC7721 cells assessed as accumulation of cells at […] phase after 72 hrs by propidium iodide staining-based flow cytometric analysis. It counts as functional.

Broadly, the IC50 is the concentration at which inhibition is half-maximal. One may read the inhibition as the change of the read-out against control, counted positive when it falls. A lower inhibition goes with little suppression.

Sequence of Histone deacetylase 2 (Q92769 whole entry): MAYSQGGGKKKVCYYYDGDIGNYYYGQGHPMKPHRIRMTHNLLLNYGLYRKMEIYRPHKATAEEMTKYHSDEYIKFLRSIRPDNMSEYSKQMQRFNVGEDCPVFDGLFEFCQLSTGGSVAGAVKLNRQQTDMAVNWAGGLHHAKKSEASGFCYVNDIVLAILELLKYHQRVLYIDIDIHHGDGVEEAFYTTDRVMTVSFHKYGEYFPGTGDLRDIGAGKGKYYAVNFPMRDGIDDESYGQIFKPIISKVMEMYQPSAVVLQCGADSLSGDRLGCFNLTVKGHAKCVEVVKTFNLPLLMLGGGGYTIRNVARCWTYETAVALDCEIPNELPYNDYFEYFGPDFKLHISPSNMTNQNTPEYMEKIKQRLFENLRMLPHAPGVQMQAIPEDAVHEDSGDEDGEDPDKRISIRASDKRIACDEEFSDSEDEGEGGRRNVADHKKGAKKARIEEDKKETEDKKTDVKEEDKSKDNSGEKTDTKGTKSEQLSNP

Consider `Nc1ccccc1NC(=O)c1ccc(CSC(=S)N2CCN(c3ccncc3)CC2)cc1`, for which the Activity in the assay on SMMC-7721 [1] is 85.19%; with SMMC-7721 [2], “Dose-dependent effect”; in the assay with SMMC-7721 [3] it was 12.05%; with SMMC-7721 [4], 19.79%; in the assay on SMMC-7721 [5] it was 11.06%; with SMMC-7721 [6], 13.68%. Besides, the Activity entry in the assay on NCI-H1299 is “Dose-dependent effect”; in the assay with SMMC-7721 [7], 7.28%; in the assay on SMMC-7721 [9] it was 17.23%; in the assay with SMMC-7721 [11] it was 52.78%. Further, the IC50 with SMMC-7721 [2] was 1340 nM; on Histone deacetylase 2 it was 470 nM; in the assay on NCI-H1299, 2490 nM; at Histone deacetylase, 720 nM. Also, the viability at 1 µM in the assay with SMMC-7721 [8] worked out at 66.7%. The inhibition at 8 µM is 77.4% in the assay with HeLa and 90.7% in the assay with A-375. Besides, the viability at 4 µM in the assay on SMMC-7721 [10] was 24.3%.

Turning to `CCN(Cc1ccncc1)C(=S)SCc1ccc(C(=O)Nc2ccccc2N)cc1`, the Activity in the assay on SMMC-7721 [1] was 41.87%; with SMMC-7721 [3], 48.94%; in the assay with SMMC-7721 [4], 23.81%; with SMMC-7721 [5], 14.06%; in the assay with SMMC-7721 [6], 21.11%; in the assay with SMMC-7721 [12] it was “Dose-dependent effect”. Further, the Activity in the assay with SMMC-7721 [7] is on record as 6.81%; in the assay on SMMC-7721 [9], 18.06%; in the assay with SMMC-7721 [11] it was 31.88%. Besides, the IC50 in the assay on SMMC-7721 [2] was 1210 nM; on Histone deacetylase 2, 900 nM; in the assay on NCI-H1299 it was 750 nM; on Histone deacetylase it was 1800 nM. Also, the viability at 1 µM in the assay with SMMC-7721 [8] stood at 54.7%. The inhibition at 8 µM in the assay with HeLa worked out at 77.7%; in the assay on A-375, 86.2%. For the same compound, in the assay with SMMC-7721 [10], the viability at 4 µM came to 43%.

With `Nc1ccccc1NC(=O)c1ccc(CSC(=S)N2CCc3ccccc3C2)cc1`, the Activity in the assay on SMMC-7721 [1] was 64.06%; with SMMC-7721 [3], 28.31%; in the assay on SMMC-7721 [4] it was 25.36%; in the assay with SMMC-7721 [5], 12.44%; with SMMC-7721 [6] it was 23.16%; with SMMC-7721 [12], “Dose-dependent effect”. For the same compound, the Activity is 5.7% in the assay on SMMC-7721 [7], 27.39% in the assay with SMMC-7721 [9] and 26.7% with SMMC-7721 [11]. Further, the half-maximal inhibitory concentration (IC50) amounted to 1200 nM in the assay on SMMC-7721 [2], 3230 nM on Histone deacetylase 2 and 980 nM in the assay with NCI-H1299. In addition, in the assay with SMMC-7721 [8], the viability at 1 µM worked out at 57.3%. For the same compound, the inhibition at 8 µM in the assay with HeLa came out at 76.3%; in the assay with A-375 it was 86.7%. In addition, the viability at 4 µM in the assay with SMMC-7721 [10] was determined as 46%.
